Results: US20120184625A1, “METHODS AND COMPOSITIONS FOR CONTROLLING PESTS” (priority 2001, published 2012)

Columns and labels:
[1] = test system: Two spotted mite (TSM) Tetranychus urticae Koch; assay: TSM leaf disc bioassay, Potter spray tower; assay type: in vivo; parameters: LD50 and 95% CL: unit not given beside the values; conditions: for LD50 and 95% CL: in vivo
Protocol: Two spotted mite (TSM) Tetranychus urticae Koch [Acarina: Tetranychidae] were collected from a mass culture maintained at the University of Western Sydney's Hawkesbury Campus in Richmond, NSW, Australia. They were reared on potted French beans (Phaseolus vulgaris L [Fabales: Fabaceae] in a glasshouse maintained at 25±5° C., 65±5% RH and 14 h D:L photoperiod. Only young females were selected for bioassay.
From an E. cloeziana oil extract (containing 85% tasmanone), 1.1765 g was dissolved in 5 mL ethyl alcohol and distilled water containing 200 ppm Triton X-100™ was added to prepare a 1% stock solution. From this homogenised stock solution, further serial dilutions of 0.0125, 0.025, 0.05, 0.10, and 0.12% were prepared by mixing the required amount of stock solution in distilled water and Triton X-100 solution. Each treatment was conducted on 60-80 TSM, which were evenly distributed on four French bean leaf discs (25 mm diam) contained in 90 mm diam. petri dishes. The leaf discs were placed with their underside uppermost on moist absorbent cotton wool covered with muslin netting. Water was added to the dishes daily to prevent desiccation of the leaf discs. Five mL aliquots (unless otherwise stated) were applied to each petri dish with a Potter precision spray tower as described by Herron et al (1995). The average mass of solution applied to each dish was calculated to be 3.95 mg/cm^2. Mortality was recorded 24 h after treatment. Death was recognised by the absence of movement when the test organisms were mechanically stimulated. Data were analysed using SPSS for Windows™ Version 7. Probit analysis was carried out for dose-mortality data and heterogeneity of regressions was determined by the Pearson chi-squared characteristic.
In addition, TSM was treated with E. cloeziana oil extract in combination with paraffin oil. In particular, E. cloeziana oil extract at levels of 0.1, 0.2, 0.3, 0.4 and 0.5 g were weighed out and each was made up to a weight of 10.0 g with a formulated paraffin oil (BioPest®), which was then sonicated for 10 min. A 1.0% v/v of each blend was prepared by mixing 1.0 mL with distilled water in a 100.0 mL volumetric flask. TSM were transferred to the petri dish following the same standard method. Five-mL aliquots were applied to each petri dish and mortality was recorded 24 h after treatment. All blends of E. cloeziana oil extract with paraffin oil produced 100.0% mortality, compared with Biopest® alone which caused only 35.5±6.9 mortality.
The efficacy of purified β-triketones against TSM was investigated using the TSM bioassay described in Example 8.

[2] = test system: greenhouse thrips (GHT), Heliothrips haemorrhoidalis Bouché; assay: Greenhouse thrips bioassay on lemon leaf discs, Potter spray tower; assay type: in vivo
Protocol: Adult parthenogenetic female greenhouse thrips (GHT), Heliothrips haemorrhoidalis Bouché (Thysanoptera: Thripidae) of similar age were obtained from a colony reared on orange fruits and maintained in an insectary at UWS Hawkesbury under conditions of 25±3° C., 65% RH and 16 h D:L photoperiod
The same experimental procedure used for TSM was repeated for GHT except that lemon leaf discs were used instead of French beans. The required number of adult thrips for each treatment was transferred with a fine brush to the underside of a lemon disc of the same diameter (6 cm) as the base of a petri dish. The lemon disc was mounted on agar with its adaxial side uppermost. Immediately after treatment the petri dish was covered with perforated plastic wrap. […]
The efficacy of purified β-triketones against GHT was investigated using the GHT bioassay described in Example 8.
All β-triketones except jensenone caused 100% mortality on GHT at a concentration of 0.3% when 5 mL aliquots were applied with a Potter spray tower.

`CC(=O)C1=C(O)C(C)CC(C)(C)C1=O` (stereo not drawn) [Angustione, 1-acetyl-3,5,5-trimethylcyclohex-2,6-dione] was tested, and the “LD50 and 95% CL” value [1] was 0.22 (0.21-0.24).
In the case of `CC(=O)C1=C(O)C(C)(C)C=C(C)C1=O` [Dehydroangustione, 1-acetyl-3,5,5-trimethylcyclohex-3-en-2,6-dione], the “LD50 and 95% CL” value [1] is reported as 0.36 (0.33-0.41).
In the case of `CC1(C)C(=O)C(CCc2ccccc2)C(=O)C(C)(C)C1=O` [Grandiflorone, 1-(2-phenylethyl)-3,3,5,5-tetramethylcyclohexan-2,4,6-trione], the “LD50 and 95% CL” value [1] is reported as 0.04.
With `CC(C)CC(=O)C1C(=O)C(C=O)C(=O)C(C=O)C1=O` (stereo not drawn) [Jensenone] the “behavioural effect on treated TSM” value ([1]; TSM, 0.05-0.4%) was “to move normally and continued to convulse”, the “recovery of treated TSM” value ([1]; TSM, 0.05-0.4%) was “treatment. There was no recovery” and the “time after treatment at which TSM commenced to die” value ([1]; TSM, 0.05-0.4%) was “until they commenced to die 72 h after”. For the same compound, the “direct mortality within 24 h” value ([1]; TSM, any concentration tested (0.05-0.4%)) was “No direct mortality occurred in any”, the mortality ([2]; 72 h after application in the 0.4% treatment) was 60.0% and the behavioural effects ([2]; all concentrations tested) was “Convulsion and lack of movement”. For the same compound, the “direct mortality within 24 h” value ([2]; all concentrations tested) was “did not cause direct mortality”.
With `COC1=CC(=O)C(C(C)=O)C(=O)C1(C)C` (stereo not drawn) [Platyphyllol, 6,6-dimethyl-2-acetyl-5-methoxycyclohex-4-ene-1,3-dione] the “LD50 and 95% CL” value [1] was 0.070.
`COC1=C(C)C(=O)C(C(=O)C(C)C)C(=O)C1(C)C` (stereo not drawn) [Tasmanone, 1-isobutroyl-4-methoxy-3,5,5-trimethylcyclohex-3-en-2,6-dione] was tested, and the “LD50 and 95% CL” value [1] was 0.055.
